# In article PMC6430017, “Structural and chemical insights into the covalent-allosteric inhibition of the protein kinase Akt” (Chemical Science, 2019):
# Experiments:
# Experiment in all cases: SelectScreen Z'LYTE kinase profiling
# Assay type in all cases: biochemical
# Settings in all cases: ATP at apparent KM
# CDC42 BPB (MRCKB) = CDC42 BPB (MRCKB) (Homo sapiens, UniProt Q9Y5S2)
# Experimental: (§1) protein kinases at a compound concentration of 1 µM. Measurements were performed in duplicates
# (§2) and at the particular apparent ATP KM of each individual kinase employing the activity based Z’LYTE®
# (§3) kinase assay of the SelectScreen® Kinase Profiling Services (ThermoFisher Scientific).
# (§4) kinases at a compound concentration of 1 µM. Measurements were performed in duplicates and at
# (§5) the particular apparent ATP KM of each individual kinase employing the activity based Z’LYTE® kinase
# (§6) assay of the SelectScreen® Kinase Profiling Services (ThermoFisher Scientific).
# ACVR1B (ALK4) = molecular target: T1, ACVR1B (ALK4) (Homo sapiens, UniProt P36896)
# T1 sequence (P36896 24-505): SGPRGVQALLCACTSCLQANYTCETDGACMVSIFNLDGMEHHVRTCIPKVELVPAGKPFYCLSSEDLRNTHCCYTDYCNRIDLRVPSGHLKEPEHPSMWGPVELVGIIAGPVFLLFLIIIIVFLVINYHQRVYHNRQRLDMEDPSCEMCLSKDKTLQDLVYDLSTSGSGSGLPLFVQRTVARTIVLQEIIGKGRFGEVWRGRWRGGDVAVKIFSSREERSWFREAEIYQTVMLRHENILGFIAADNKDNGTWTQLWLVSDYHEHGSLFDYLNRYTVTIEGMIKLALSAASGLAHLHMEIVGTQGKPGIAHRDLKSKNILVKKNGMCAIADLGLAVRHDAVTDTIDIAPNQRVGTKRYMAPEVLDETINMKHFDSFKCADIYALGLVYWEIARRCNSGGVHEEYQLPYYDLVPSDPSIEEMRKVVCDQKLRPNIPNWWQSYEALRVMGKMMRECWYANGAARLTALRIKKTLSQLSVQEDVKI
# Experimental: as §1, §2, §3, §4, §5, §6
# MKNK1 (MNK1) = MKNK1 (MNK1) (Homo sapiens, UniProt Q9BUB5)
# Experimental: as §1, §2, §3, §4, §5, §6
# NEK1 = molecular target: T2, NEK1 (Homo sapiens, UniProt Q96PY6)
# T2 sequence (Q96PY6 1-1258): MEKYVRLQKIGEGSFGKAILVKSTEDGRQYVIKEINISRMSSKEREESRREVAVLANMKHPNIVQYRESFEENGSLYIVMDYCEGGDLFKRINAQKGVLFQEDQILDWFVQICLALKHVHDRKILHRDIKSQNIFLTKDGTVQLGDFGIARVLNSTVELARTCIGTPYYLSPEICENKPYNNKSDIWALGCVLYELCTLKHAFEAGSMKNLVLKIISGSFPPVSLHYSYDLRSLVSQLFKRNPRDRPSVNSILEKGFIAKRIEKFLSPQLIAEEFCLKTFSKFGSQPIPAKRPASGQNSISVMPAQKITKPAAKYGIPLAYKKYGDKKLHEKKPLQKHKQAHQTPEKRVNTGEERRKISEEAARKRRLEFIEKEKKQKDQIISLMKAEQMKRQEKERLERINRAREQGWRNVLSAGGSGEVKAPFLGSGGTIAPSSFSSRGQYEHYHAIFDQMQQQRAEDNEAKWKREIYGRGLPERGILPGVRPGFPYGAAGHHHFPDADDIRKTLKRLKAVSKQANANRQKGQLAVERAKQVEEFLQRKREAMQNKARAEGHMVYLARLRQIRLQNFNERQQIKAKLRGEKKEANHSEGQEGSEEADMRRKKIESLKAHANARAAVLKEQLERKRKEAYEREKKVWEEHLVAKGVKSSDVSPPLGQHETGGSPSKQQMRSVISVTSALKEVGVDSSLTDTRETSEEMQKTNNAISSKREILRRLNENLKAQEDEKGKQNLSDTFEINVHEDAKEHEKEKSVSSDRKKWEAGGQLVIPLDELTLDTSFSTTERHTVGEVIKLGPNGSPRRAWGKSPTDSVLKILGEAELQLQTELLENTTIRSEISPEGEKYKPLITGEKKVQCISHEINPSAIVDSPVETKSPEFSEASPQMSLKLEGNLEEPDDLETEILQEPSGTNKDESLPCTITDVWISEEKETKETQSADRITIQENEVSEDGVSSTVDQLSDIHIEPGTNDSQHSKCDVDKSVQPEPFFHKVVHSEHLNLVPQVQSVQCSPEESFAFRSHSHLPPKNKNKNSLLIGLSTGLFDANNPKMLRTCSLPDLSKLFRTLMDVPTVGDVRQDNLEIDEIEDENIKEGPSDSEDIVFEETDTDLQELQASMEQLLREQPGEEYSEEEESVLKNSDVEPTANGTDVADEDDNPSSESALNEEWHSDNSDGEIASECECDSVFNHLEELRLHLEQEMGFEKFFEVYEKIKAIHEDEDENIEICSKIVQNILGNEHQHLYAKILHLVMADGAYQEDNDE
# Experimental: as §1, §2, §3, §4, §5, §6
# FRAP1 (mTOR) = FRAP1 (mTOR) (Homo sapiens, UniProt P42345)
# Experimental: as §1, §2, §3, §4, §5, §6
# DCAMKL2 (DCK2) = molecular target: T3, DCAMKL2 (DCK2) (Homo sapiens, UniProt Q8N568)
# T3 sequence (Q8N568 1-766): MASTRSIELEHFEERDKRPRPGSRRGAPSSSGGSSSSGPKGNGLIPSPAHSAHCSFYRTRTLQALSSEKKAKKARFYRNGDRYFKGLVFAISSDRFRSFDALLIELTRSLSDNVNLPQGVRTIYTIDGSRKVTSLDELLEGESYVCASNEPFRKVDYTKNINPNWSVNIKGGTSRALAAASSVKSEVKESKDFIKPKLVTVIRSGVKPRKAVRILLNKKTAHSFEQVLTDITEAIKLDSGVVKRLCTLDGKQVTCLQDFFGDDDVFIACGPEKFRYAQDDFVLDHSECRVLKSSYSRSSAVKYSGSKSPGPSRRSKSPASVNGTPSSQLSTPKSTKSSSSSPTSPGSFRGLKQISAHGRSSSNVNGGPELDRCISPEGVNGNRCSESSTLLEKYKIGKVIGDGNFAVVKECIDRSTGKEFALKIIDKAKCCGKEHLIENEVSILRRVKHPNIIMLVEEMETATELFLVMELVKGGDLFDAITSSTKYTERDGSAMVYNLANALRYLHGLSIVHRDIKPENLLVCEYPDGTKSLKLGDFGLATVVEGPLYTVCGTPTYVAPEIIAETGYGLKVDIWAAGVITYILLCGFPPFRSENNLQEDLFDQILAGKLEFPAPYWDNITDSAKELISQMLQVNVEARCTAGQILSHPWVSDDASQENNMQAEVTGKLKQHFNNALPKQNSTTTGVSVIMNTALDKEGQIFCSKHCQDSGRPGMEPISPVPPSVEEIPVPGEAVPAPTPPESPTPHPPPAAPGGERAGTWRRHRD
# Experimental: as §1, §2, §3, §4, §5, §6
# Sequence of MKNK1 (MNK1) (Q9BUB5 whole entry): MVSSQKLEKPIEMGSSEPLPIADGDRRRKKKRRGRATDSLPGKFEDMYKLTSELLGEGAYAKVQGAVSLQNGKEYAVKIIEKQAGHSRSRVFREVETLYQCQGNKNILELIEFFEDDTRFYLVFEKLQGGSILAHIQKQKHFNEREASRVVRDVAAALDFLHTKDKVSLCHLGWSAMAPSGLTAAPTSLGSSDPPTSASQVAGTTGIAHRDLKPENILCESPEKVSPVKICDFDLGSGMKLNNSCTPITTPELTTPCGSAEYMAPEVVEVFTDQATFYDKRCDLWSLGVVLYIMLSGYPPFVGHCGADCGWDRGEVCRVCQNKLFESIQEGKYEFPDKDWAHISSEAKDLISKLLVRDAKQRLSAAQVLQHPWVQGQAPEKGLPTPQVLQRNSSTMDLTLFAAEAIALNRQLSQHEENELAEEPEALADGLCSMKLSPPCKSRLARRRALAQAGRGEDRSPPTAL
# Sequence of CDC42 BPB (MRCKB) (Q9Y5S2 whole entry): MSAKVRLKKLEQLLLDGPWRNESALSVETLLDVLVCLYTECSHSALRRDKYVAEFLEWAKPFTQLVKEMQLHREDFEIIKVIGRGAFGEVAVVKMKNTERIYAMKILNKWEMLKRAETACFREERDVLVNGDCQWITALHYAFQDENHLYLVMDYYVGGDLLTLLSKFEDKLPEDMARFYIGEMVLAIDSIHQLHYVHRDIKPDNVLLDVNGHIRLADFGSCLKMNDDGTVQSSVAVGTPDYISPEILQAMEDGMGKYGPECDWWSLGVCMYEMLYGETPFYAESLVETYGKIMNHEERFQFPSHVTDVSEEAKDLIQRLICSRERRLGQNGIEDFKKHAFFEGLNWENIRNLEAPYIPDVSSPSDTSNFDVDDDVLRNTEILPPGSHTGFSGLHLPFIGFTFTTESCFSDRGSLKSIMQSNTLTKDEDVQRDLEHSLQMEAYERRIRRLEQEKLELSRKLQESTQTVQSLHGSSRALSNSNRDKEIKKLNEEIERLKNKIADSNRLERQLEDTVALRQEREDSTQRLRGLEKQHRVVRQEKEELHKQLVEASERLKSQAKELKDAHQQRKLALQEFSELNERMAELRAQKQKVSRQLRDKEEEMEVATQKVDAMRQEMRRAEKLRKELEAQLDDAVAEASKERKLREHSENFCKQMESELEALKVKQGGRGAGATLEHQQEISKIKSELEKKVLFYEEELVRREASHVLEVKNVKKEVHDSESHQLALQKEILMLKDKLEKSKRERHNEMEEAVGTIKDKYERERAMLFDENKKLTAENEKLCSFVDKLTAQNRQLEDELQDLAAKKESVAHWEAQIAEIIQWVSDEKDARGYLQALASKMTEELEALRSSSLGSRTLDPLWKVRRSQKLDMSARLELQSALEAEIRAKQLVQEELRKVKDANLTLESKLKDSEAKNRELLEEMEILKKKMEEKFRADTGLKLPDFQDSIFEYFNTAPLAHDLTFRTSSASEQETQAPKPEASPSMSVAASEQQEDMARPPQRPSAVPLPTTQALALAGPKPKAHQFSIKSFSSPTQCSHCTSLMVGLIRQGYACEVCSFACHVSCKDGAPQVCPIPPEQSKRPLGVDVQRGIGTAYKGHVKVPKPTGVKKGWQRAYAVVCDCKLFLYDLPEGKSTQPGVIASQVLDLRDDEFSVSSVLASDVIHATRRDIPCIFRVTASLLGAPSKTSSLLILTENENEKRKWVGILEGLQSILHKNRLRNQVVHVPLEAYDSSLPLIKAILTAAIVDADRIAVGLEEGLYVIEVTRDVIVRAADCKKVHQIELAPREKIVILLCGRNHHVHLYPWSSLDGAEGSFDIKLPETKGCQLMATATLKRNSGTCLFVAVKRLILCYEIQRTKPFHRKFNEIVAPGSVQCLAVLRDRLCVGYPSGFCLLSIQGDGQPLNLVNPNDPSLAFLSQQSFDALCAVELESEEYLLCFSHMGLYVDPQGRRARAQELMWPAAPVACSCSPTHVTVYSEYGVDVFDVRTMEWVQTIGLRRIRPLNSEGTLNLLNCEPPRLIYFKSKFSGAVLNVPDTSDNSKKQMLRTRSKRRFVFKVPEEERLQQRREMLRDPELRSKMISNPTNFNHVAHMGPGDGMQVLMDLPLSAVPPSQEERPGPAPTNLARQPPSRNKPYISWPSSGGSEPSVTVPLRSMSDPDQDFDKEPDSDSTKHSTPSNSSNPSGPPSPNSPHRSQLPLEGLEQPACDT
SMILES,inhibition at 1 µM (CDC42 BPB (MRCKB)) [%],inhibition at 1 µM (ACVR1B (ALK4)) [%],inhibition at 1 µM (MKNK1 (MNK1)) [%],inhibition at 1 µM (NEK1) [%],inhibition at 1 µM (FRAP1 (mTOR)) [%],inhibition at 1 µM (DCAMKL2 (DCK2)) [%]
C=CC(=O)Nc1cccc(C(=O)NC2CCN(Cc3ccc(-c4nc5cc[nH]c(=O)c5cc4-c4ccccc4)cc3)CC2)c1 [30b],-27,0,10,-2,1,3
C=CC(=O)Nc1ccc2c(c1)n(C1CCN(Cc3ccc(-c4nc5cc[nH]c(=O)c5cc4-c4ccccc4)cc3)CC1)c(=O)n2C [24b],3,-1,-22,-7,8,-1
C=CC(=O)Nc1cc(NC(=O)NC2CCN(Cc3ccc(-c4nc5cc[nH]c(=O)c5cc4-c4ccccc4)cc3)CC2)ccc1Cl [compound 27],12,-8,29,-1,-2,-1
